Results: PubChem BioAssay AID2060900 (Molecular Pharmacology Branch, DTP, NCI, 2025)
“And” between values parts separate entries of the source, which are not always exact repeats. Equal values may be shown once. Each block holds one molecule with its values, some of them ahead of it.

Test system: 521955-158-R2-J5-PDC complex spheroids, viability
Assay: Anticancer human tumor 521955-158-R2-J5-PDC patient-derived pancreatic carcinoma cell line growth inhibition [RAS]
Conditions: for viability, T/C: stronger effect = lower value
How it was run: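 Tumour cells grown as complex spheroids with HUVEC endothelial cells and mesenchymal stem cells, treated with RAS pathway inhibitor combinations. Each agent spans half-log steps from near clinical Cmax, or 10 microM where Cmax is unknown.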

[1] = curve of first compound, second compound 0.00316 µM
[2] = curve of first compound, second compound 0.01 µM
[3] = curve of first compound, second compound 0.0316 µM
[4] = curve of first compound, second compound 0.1 µM
[5] = curve of first compound, second compound 0.316 µM
[6] = curve of first compound, second compound 1 µM
[7] = second compound 0.00316 µM, first compound 0.0316 µM
[8] = second compound 0.00316 µM, first compound 0.1 µM
[9] = second compound 0.00316 µM, first compound 0.316 µM
[10] = second compound 0.00316 µM, first compound 1 µM
[11] = second compound 0.01 µM, first compound 0.0316 µM
[12] = second compound 0.01 µM, first compound 0.1 µM
[13] = second compound 0.01 µM, first compound 0.316 µM
[14] = second compound 0.01 µM, first compound 1 µM
[15] = second compound 0.0316 µM, first compound 0.0316 µM
[16] = second compound 0.0316 µM, first compound 0.1 µM
[17] = second compound 0.0316 µM, first compound 0.316 µM
[18] = second compound 0.0316 µM, first compound 1 µM
[19] = second compound 0.0316 µM, first compound 3.16 µM
[20] = second compound 0.0316 µM, first compound 10 µM
[21] = second compound 0.1 µM, first compound 0.0316 µM
[22] = second compound 0.1 µM, first compound 0.1 µM
[23] = second compound 0.1 µM, first compound 0.316 µM
[24] = second compound 0.1 µM, first compound 1 µM
[25] = second compound 0.1 µM, first compound 3.16 µM
[26] = second compound 0.1 µM, first compound 10 µM
[27] = second compound 0.316 µM, first compound 0.0316 µM
[28] = second compound 0.316 µM, first compound 0.1 µM
[29] = second compound 0.316 µM, first compound 0.316 µM
[30] = second compound 0.316 µM, first compound 1 µM
[31] = second compound 0.316 µM, first compound 3.16 µM
[32] = second compound 0.316 µM, first compound 10 µM
[33] = second compound 1 µM, first compound 0.0316 µM
[34] = second compound 1 µM, first compound 0.1 µM
[35] = second compound 1 µM, first compound 0.316 µM
[36] = second compound 1 µM, first compound 1 µM
[37] = second compound 1 µM, first compound 3.16 µM
[38] = second compound 1 µM, first compound 10 µM
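Also: compound exposure lasted seven days before the viability read.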
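For viability, T/C in this document: spheroids also contain HUVEC endothelial cells and mesenchymal stem cells as stroma.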

IC50 [1]: > 10000 nM | IC50 [2]: > 10000 nM | IC50 [3]: > 10000 nM | IC50 [4]: > 10000 nM | IC50 [5]: > 10000 nM | IC50 [6]: > 10000 nM
Compound: Cc1nc(N2CCC3(CC2)COC(C)C3N)c(CO)nc1Sc1ccnc(N)c1Cl (stereo not drawn) + C=CC(=O)N1CCN(c2nc(OCC3CCCN3C)nc3c(F)c(-c4nc(N)cc(C)c4C(F)(F)F)c(Cl)cc23)C(C)C1
viability, T/C [7]: 88.7% | viability, T/C [8]: 77.2% | viability, T/C [9]: 69.8% | viability, T/C [10]: 70.5% | viability, T/C (second compound 0.00316 µM, first compound 3.16 µM): 60.1% | viability, T/C (second compound 0.00316 µM, first compound 10 µM): 56.8% | viability, T/C [11]: 81.2% | viability, T/C [12]: 79% | viability, T/C [13]: 64.6% | viability, T/C [14]: 64.2% | viability, T/C (second compound 0.01 µM, first compound 3.16 µM): 60.3% | viability, T/C (second compound 0.01 µM, first compound 10 µM): 63.3% | viability, T/C [15]: 73.8% | viability, T/C [16]: 90.9% | viability, T/C [17]: 72.1% | viability, T/C [18]: 71.6% | viability, T/C [19]: 60.7% | viability, T/C [20]: 56.9% | viability, T/C [21]: 101% | viability, T/C [22]: 78.5% | viability, T/C [23]: 70.5% | viability, T/C [24]: 63.2% | viability, T/C [25]: 63% | viability, T/C [26]: 54.1% | viability, T/C [27]: 100% | viability, T/C [28]: 80.3% | viability, T/C [29]: 61% | viability, T/C [30]: 61.3% | viability, T/C [31]: 64.8% | viability, T/C [32]: 56% | viability, T/C [33]: 106% | viability, T/C [34]: 70.1% | viability, T/C [35]: 66.5% | viability, T/C [36]: 62.6% | viability, T/C [37]: 55.3% | viability, T/C [38]: 48.3%

IC50 [3]: 1370 nM | IC50 [4]: 1160 nM | IC50 [5]: 1080 nM | IC50 [6]: 737 nM | IC50 (curve of first compound, second compound 3.16 µM): 935 nM | IC50 (curve of first compound, second compound 10 µM): 31.6 nM
Compound: CCC(CC)c1cc(NC2CCC(N)C2)n2nccc2n1 (stereo not drawn) + C#Cc1c(F)ccc2cc(O)cc(-c3ncc4c(N5CC6CCC(C5)N6)nc(OCC56CCCN5CC(F)C6)nc4c3F)c12
viability, T/C [15]: 62.2% | viability, T/C [16]: 56% | viability, T/C [17]: 68.2% | viability, T/C [18]: 77.6% | viability, T/C [19]: 5.12% | viability, T/C [20]: 10.6% | viability, T/C [21]: 51.8% | viability, T/C [22]: 59.7% | viability, T/C [23]: 65.7% | viability, T/C [24]: 55.8% | viability, T/C [25]: 8.07% | viability, T/C [26]: 12.2% | viability, T/C [27]: 56.4% | viability, T/C [28]: 72.5% | viability, T/C [29]: 56.3% | viability, T/C [30]: 53% | viability, T/C [31]: 7.76% | viability, T/C [32]: 12.5% | viability, T/C [33]: 47.6% | viability, T/C [34]: 54.1% | viability, T/C [35]: 64% | viability, T/C [36]: 48.1% | viability, T/C [37]: 7.46% | viability, T/C [38]: 10.2% | viability, T/C (second compound 3.16 µM, first compound 0.0316 µM): 53.8% | viability, T/C (second compound 3.16 µM, first compound 0.1 µM): 61.7% | viability, T/C (second compound 3.16 µM, first compound 0.316 µM): 52.2% | viability, T/C (second compound 3.16 µM, first compound 1 µM): 49.7% | viability, T/C (second compound 3.16 µM, first compound 3.16 µM): 4.58% | viability, T/C (second compound 3.16 µM, first compound 10 µM): 13.5% | viability, T/C (second compound 10 µM, first compound 0.0316 µM): 46% | viability, T/C (second compound 10 µM, first compound 0.1 µM): 51.2% | viability, T/C (second compound 10 µM, first compound 0.316 µM): 45% | viability, T/C (second compound 10 µM, first compound 1 µM): 33% | viability, T/C (second compound 10 µM, first compound 3.16 µM): 4.49% | viability, T/C (second compound 10 µM, first compound 10 µM): 9.43%

IC50 (curve of compound): > 10000 nM and 5730 nM
Compound: C[C@@H](NC(=O)c1ncnc(N)c1Cl)c1ncc(C(=O)Nc2cc(C(F)(F)F)c(Cl)cn2)s1
viability, T/C (compound 10 µM): 60.9% [middle of 4 runs]

IC50 [1]: 136 nM | IC50 [2]: 225 nM | IC50 [3]: 273 nM | IC50 [4]: 144 nM | IC50 [5]: 258 nM | IC50 [6]: 233 nM
Compound: Nc1ccn(C2OC(CO)C(O)C2(F)F)c(=O)n1 (stereo not drawn) + C=CC(=O)N1CCN(c2nc(OCC3CCCN3C)nc3c(F)c(-c4nc(N)cc(C)c4C(F)(F)F)c(Cl)cc23)C(C)C1
viability, T/C (second compound 0.00316 µM, first compound 0.00316 µM): 94.2% | viability, T/C (second compound 0.00316 µM, first compound 0.01 µM): 88.7% | viability, T/C [7]: 65% | viability, T/C [8]: 59% | viability, T/C [9]: 36.6% | viability, T/C [10]: 12.9% | viability, T/C (second compound 0.01 µM, first compound 0.00316 µM): 94.2% | viability, T/C (second compound 0.01 µM, first compound 0.01 µM): 89% | viability, T/C [11]: 75.5% | viability, T/C [12]: 73.3% | viability, T/C [13]: 39.8% | viability, T/C [14]: 15.3% | viability, T/C (second compound 0.0316 µM, first compound 0.00316 µM): 93.2% | viability, T/C (second compound 0.0316 µM, first compound 0.01 µM): 93.8% | viability, T/C [15]: 72.4% | viability, T/C [16]: 67% | viability, T/C [17]: 52.7% | viability, T/C [18]: 13% | viability, T/C (second compound 0.1 µM, first compound 0.00316 µM): 119% | viability, T/C (second compound 0.1 µM, first compound 0.01 µM): 88.6% | viability, T/C [21]: 72.4% | viability, T/C [22]: 50.5% | viability, T/C [23]: 51.5% | viability, T/C [24]: 11.9% | viability, T/C (second compound 0.316 µM, first compound 0.00316 µM): 103% | viability, T/C (second compound 0.316 µM, first compound 0.01 µM): 93.4% | viability, T/C [27]: 77.1% | viability, T/C [28]: 70.1% | viability, T/C [29]: 49.6% | viability, T/C [30]: 11.7% | viability, T/C (second compound 1 µM, first compound 0.00316 µM): 106% | viability, T/C (second compound 1 µM, first compound 0.01 µM): 100% | viability, T/C [33]: 74.4% | viability, T/C [34]: 63% | viability, T/C [35]: 54.8% | viability, T/C [36]: 13%
